From ChEMBL document CHEMBL1139770, “Non-nucleoside inhibitors of the measles virus RNA-dependent RNA polymerase complex activity: Synthesis and in vitro evaluation” (Bioorg Med Chem Lett, 2007)

Legend:
[1] = Cytotoxicity against Vero cells by MTT assay; assay type: cell-based; conditions: chlorocebus sabaeus
[2] = test system: Measles morbillivirus; assay: Antiviral activity against Measles virus Alaska assessed as inhibition of viral-induced cytopathicity; assay type: functional, organism-based
[3] = Ratio of CC50 for Vero cells to IC50 for Measles virus Alaska; assay type: functional
[4] = test system: Measles morbillivirus; assay: Antiviral activity against Measles virus Alaska assessed as virus titer reduction; assay type: functional
[5] = Cytotoxicity against Vero cells by Trypan blue exclusion assay; assay type: cell-based; conditions: chlorocebus sabaeus

SMILES | CC50 [1] [µM] | EC50 [2] [µM] | Ratio CC50/IC50 [3] | Activity [4] [µM] | CC50 [5] [µM]
O=C(Nc1ccc(S(=O)(=O)N2CCCC2)cc1)c1ccc([N+](=O)[O-])cc1Cl | > 300 | > 75 | – | – | –
COc1ccc(Br)c(C(=O)Nc2ccc(S(=O)(=O)N3CCCC3)cc2)c1 | > 300 | > 75 | – | – | –
Cn1nc(C(F)(F)F)cc1COc1ccc(S(=O)(=O)N2CCCC2)cc1 | > 300 | > 75 | – | – | –
Cn1nc(C(F)(F)F)cc1C(=O)Nc1ccc(S(=O)(=O)N2CCC[C@H]2C(=O)O)cc1 | > 300 | 23 | – | – | –
O=C(Nc1ccc(S(=O)(=O)N2CCCC2)cc1)c1cccc(C(F)(F)F)c1 | > 300 | > 75 | – | – | –
O=C(Nc1ccc(S(=O)(=O)N2CCCC2)cc1)c1ccc(C(F)(F)F)cc1 | > 300 | 48 | – | – | –
Cn1nc(C(F)(F)F)cc1C(=O)Nc1ccc(S(=O)(=O)N2CCOCC2)cc1 | > 300 | 43 | – | – | –
O=C(Nc1ccc(S(=O)(=O)N2CCCC2)cc1)c1cccs1 | > 300 | > 75 | – | – | –
Cn1nc(C(F)(F)F)cc1CNc1ccc(S(=O)(=O)N2CCCC2)cc1 | > 300 | > 75 | – | – | –
O=C(Nc1ccc(S(=O)(=O)N2CCCC2)cc1)c1ccc(CCl)cc1 | 11 | – | – | – | –
Cc1nc(C(F)(F)F)ccc1C(=O)Nc1ccc(S(=O)(=O)N2CCCC2)cc1 | > 300 | > 75 | – | – | –
O=C(Nc1ccc(S(=O)(=O)N2CCCC2)cc1)c1nc2ccccc2s1 | > 300 | > 75 | – | – | –
O=C(Nc1ccc(S(=O)(=O)N2CCCC2)cc1)c1ccco1 | > 300 | > 75 | – | – | –
Cn1nc(C(F)(F)F)cc1C(=O)Nc1ccc(S(=O)(=O)N2CCCC2)cc1OC(=O)c1cc(C(F)(F)F)nn1C | 14 | – | – | – | –
O=C(Nc1ccc(S(=O)(=O)N2CCCC2)cc1)c1cc(C(F)(F)F)nn1Cc1ccccc1 | 37 | > 75 | – | – | –
Cn1nc(C(F)(F)F)cc1C(=O)Nc1ccc(S(=O)(=O)n2ccc3ccccc32)cc1 | 13 | – | – | – | –
Cn1nc(C(F)(F)F)cc1C(=O)Nc1ccc(S(=O)(=O)N2CCCC2)cc1O | 288 | > 75 | – | – | –

SMILES | CC50 [1] [µM] | EC50 [2] [µM] | Ratio CC50/IC50 [3] | Activity [4] [µM] | CC50 [5] [µM]
Cn1nc(C(F)(F)F)cc1C(=O)Nc1ccc(S(=O)(=O)N2CCCC2)cc1N | > 300 | ≥ 75 | – | – | –
Cn1nc(C(F)(F)F)cc1C(=O)Nc1ccc(S(=O)(=O)N2CCCCC2)cc1 | > 300 | < 2.3 | 16500 | 0.012 | 199
Cn1nc(C(F)(F)F)cc1C(=O)Nc1ccc(S(=O)(=O)N2CCNCC2)cc1 | 126 | 28 | – | – | –
O=C(Nc1ccc(S(=O)(=O)N2CCCC2)cc1)c1ccc(C(F)(F)F)cc1[N+](=O)[O-] | > 300 | > 75 | – | – | –
O=C(Nc1ccc(S(=O)(=O)N2CCCC2)cc1)c1ccc(F)cc1 | > 300 | > 75 | – | – | –
Cn1nc(C(F)(F)F)cc1C(=O)Nc1ccc(S(=O)(=O)N2CCCC2)cc1NC(=O)c1cc(C(F)(F)F)nn1C | 13 | – | – | – | –
Cn1nc(C(F)(F)F)cc1C(=O)Nc1ccc(S(=O)(=O)N2CCC[C@H]2C(=O)OCc2ccccc2)cc1 | 100 | 14 | – | – | –
O=C(Nc1ccc(S(=O)(=O)N2CCCC2)cc1)c1ccccc1C(F)(F)F | > 300 | > 75 | – | – | –
Cc1cc(C(=O)Nc2ccc(S(=O)(=O)N3CCCC3)cc2)n(C)n1 | > 300 | > 75 | – | – | –
Cn1nc(C(C)(C)C)cc1C(=O)Nc1ccc(S(=O)(=O)N2CCCC2)cc1 | 140 | 25 | – | – | –
Cn1nc(C(F)(F)F)cc1C(=O)Nc1ccc(S(=O)(=O)N2CCCCC2C(=O)O)cc1 (stereo unspecified) | > 300 | > 75 | – | – | –
O=C(Nc1ccc(S(=O)(=O)N2CCCC2)cc1)c1nccn1-c1ccccc1C(F)(F)F | > 300 | 65 | – | – | –
Cn1nc(C(F)(F)F)cc1C(=O)Cc1ccc(S(=O)(=O)N2CCCC2)cc1 | > 300 | 15.5 | – | – | –
Cn1nc(C(F)(F)F)cc1C(O)Cc1ccc(S(=O)(=O)N2CCCC2)cc1 (stereo unspecified) | > 300 | 41 | – | – | –
Nc1ccc(C(=O)Nc2ccc(S(=O)(=O)N3CCCC3)cc2)c(Cl)c1 | > 300 | > 75 | – | – | –
O=C(Nc1ccc(S(=O)(=O)N2CCCC2)cc1)c1ccc(Br)cc1 | 59 | – | – | – | –
O=C(Nc1ccc(S(=O)(=O)N2CCCC2)cc1)c1cc(C(F)(F)F)ccc1F | 76 | ≥ 75 | – | – | –
